Experimental data published in article PMC11408249, “Non-invasive in vivo imaging of changes in Collagen III turnover in myocardial fibrosis” (npj Imaging, 2024).
Marks after values point to notes of the source that are not given here. No end group written: not given here.

What was measured:
COL1 fibres = biological target: T1, COL1 fibres (Mus musculus, UniProt P11087+Q01149); experiment: Tissue co-localisation of fluorescent probe with COL1 fibres; set-up: species or system mice; conditions: aortic tissue, murine model of vascular remodelling
T1 construct: from tissue; host or cells: sections of the remodelled aortic wall of ApoE-/- mice
Excerpt: (§1) The monomeric molecular probes ending with a N-terminus free DOTAMA chelator and with a C-terminus free carboxylic group were custom synthesised by Peptide Synthetics Ltd (Hampshire, United Kingdom) with a purity of >95%. The DOTAMA collagen-binding peptides were complexed in house with Gd(III) to obtain a contrast agent for MR molecular imaging, or with Eu(III) for in vitro binding studies using Time-Resolved Fluorescence (TRF) plate assays, or ^68Ga(III) for PET biodistribution studies. Metal complexation of the DOTAMA derivatives was performed in-house, by reacting the desired lanthanide ion (Gd^3+, Eu^3+) in a 1.05:1 L:M molar ratio at pH 5.5 and room temperature. Reaction evolution was confirmed by xylenol orange method. Upon reaction competition, the pH was adjusted to 7 and the samples were lyophilised and stored at −20 °C. The final concentration of the Gd(III) and Eu(III) complex solutions was assessed by ICP-OES and/or BMS. For tissue co-localisation experiments, the CBP1 was also synthesised in the fluorescently labelled form by conjugating a Rhodamine B derivative to its N-terminus (compound Rh-CBP1).

COL3-rich fibres = biological target: T2, COL3-rich fibres (Mus musculus, UniProt P08121); experiment: Tissue co-localisation of fluorescent probe with COL3 fibres; set-up: species or system mice; conditions: murine model of vascular remodelling
T2 construct: Signal enhancement seen on the MRI coincided with COL3 fibres detected by histology; from tissue; host or cells: remodelled abdominal aortic wall of male ApoE-/- mice, in vivo and in excised sections
T2 sequence (P08121 155-1219 limits assumed): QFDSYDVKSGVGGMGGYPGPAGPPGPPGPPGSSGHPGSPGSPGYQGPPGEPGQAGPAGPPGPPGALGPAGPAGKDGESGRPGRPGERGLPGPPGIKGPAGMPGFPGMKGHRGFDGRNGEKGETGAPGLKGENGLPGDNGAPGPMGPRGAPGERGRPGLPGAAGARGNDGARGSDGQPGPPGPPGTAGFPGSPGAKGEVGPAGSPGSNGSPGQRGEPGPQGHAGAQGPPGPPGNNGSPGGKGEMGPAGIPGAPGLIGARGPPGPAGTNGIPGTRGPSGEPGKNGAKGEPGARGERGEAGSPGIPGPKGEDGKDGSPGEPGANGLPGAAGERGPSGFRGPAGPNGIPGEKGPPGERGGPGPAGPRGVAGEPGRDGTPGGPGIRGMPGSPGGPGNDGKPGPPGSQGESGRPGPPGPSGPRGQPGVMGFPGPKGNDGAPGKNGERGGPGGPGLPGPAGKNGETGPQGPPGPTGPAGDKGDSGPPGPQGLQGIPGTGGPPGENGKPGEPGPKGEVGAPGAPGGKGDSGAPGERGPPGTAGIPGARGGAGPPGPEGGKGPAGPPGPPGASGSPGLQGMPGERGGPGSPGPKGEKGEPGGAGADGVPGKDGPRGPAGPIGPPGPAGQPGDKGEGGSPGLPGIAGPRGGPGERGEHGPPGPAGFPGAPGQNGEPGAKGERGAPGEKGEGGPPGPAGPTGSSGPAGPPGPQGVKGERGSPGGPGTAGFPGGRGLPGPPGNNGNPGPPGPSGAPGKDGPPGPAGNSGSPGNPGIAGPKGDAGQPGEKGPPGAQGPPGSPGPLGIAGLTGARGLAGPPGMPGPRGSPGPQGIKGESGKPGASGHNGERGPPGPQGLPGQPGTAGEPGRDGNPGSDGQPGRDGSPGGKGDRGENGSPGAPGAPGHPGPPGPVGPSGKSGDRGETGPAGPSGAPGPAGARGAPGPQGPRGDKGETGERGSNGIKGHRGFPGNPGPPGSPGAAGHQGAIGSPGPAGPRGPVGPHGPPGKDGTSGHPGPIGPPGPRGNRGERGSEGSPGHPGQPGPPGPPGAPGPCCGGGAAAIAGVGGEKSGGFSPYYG
Excerpt: as §1

[1] = 20 MHz, 37 °C, cited from earlier work
Experimental: Table 1 Relaxivities of monomeric and tetrameric probes bearing CBP1 and CBP2 peptide moieties, in PBS and 0.6 mM human serum albumin (HAS) at 20 MHz and 37 °C | column: r1 mM (mM^−1 s^−1) / PBS; r1 mM (mM^−1 s^−1) / HSA 0.6 mM || To further characterise the molecular characteristics of these probes, the ^1H nuclear magnetic relaxation dispersion profiles (^1H-NMRD) of Gd-DOTAMA-CBP1, Gd-DOTAMA-CBP2 and [Gd-DOTAMA]4-CBP1 were acquired in phosphate buffer saline (PBS) and in 0.6 mM human serum albumin (HSA), at 25 and 37 °C (Supplementary Fig. 3a–c). The profiles obtained were characteristic of small-molecular weight (MW) complexes, even when in the presence of HSA. Table 1 summarises the relaxivity values at 20 MHz and 37 °C, for all probes and for Gadovist[45] a nonpeptide-based (non-targeted) clinically approved contr ...

COL3 = biological target: T3, COL3 (Mus musculus, UniProt P08121); experiment: Molecular CMR of COL3 in a murine model of myocardial infarction; assay type: in vivo, mice; conditions: control agents, i.v. 0.2 mmol/kg, 30 minutes post-injection, n = 2–3 per group
T3 construct: from tissue; host or cells: infarcted left-ventricular myocardium of female CD1 mice, in vivo
T3 sequence (P08121 155-1219 limits assumed): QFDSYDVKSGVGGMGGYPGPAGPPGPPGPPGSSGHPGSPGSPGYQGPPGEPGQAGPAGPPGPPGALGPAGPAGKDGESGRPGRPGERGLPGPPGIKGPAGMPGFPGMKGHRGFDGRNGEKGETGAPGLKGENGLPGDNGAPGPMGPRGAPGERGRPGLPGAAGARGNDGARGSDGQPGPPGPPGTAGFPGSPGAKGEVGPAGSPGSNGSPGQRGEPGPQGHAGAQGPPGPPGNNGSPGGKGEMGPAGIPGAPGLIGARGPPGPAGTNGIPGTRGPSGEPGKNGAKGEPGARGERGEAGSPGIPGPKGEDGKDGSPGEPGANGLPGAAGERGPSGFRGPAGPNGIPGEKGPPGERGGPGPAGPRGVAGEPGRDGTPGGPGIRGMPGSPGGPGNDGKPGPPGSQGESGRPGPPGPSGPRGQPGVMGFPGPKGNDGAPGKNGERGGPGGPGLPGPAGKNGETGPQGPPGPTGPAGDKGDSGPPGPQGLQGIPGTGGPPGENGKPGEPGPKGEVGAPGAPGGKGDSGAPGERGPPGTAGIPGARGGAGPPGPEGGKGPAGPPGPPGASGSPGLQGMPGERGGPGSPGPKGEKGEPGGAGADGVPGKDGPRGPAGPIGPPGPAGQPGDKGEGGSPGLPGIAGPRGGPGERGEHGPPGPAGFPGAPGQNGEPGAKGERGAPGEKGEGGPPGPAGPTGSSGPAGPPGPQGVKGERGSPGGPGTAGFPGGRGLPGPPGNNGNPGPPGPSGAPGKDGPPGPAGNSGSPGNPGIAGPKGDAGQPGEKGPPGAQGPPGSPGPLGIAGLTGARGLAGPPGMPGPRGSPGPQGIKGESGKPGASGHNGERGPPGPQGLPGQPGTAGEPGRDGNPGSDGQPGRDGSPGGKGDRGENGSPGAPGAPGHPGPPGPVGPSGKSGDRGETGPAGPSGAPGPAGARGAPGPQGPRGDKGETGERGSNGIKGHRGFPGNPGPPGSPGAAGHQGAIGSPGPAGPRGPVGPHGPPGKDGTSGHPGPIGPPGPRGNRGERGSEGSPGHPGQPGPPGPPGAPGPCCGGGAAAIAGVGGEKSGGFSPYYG

Collagen type III (COL3) = biological target: T4, Collagen type III (COL3) (Homo sapiens, UniProt P02461); experiment: competition Eu(III) time-resolved fluorescence assay
T4 chain: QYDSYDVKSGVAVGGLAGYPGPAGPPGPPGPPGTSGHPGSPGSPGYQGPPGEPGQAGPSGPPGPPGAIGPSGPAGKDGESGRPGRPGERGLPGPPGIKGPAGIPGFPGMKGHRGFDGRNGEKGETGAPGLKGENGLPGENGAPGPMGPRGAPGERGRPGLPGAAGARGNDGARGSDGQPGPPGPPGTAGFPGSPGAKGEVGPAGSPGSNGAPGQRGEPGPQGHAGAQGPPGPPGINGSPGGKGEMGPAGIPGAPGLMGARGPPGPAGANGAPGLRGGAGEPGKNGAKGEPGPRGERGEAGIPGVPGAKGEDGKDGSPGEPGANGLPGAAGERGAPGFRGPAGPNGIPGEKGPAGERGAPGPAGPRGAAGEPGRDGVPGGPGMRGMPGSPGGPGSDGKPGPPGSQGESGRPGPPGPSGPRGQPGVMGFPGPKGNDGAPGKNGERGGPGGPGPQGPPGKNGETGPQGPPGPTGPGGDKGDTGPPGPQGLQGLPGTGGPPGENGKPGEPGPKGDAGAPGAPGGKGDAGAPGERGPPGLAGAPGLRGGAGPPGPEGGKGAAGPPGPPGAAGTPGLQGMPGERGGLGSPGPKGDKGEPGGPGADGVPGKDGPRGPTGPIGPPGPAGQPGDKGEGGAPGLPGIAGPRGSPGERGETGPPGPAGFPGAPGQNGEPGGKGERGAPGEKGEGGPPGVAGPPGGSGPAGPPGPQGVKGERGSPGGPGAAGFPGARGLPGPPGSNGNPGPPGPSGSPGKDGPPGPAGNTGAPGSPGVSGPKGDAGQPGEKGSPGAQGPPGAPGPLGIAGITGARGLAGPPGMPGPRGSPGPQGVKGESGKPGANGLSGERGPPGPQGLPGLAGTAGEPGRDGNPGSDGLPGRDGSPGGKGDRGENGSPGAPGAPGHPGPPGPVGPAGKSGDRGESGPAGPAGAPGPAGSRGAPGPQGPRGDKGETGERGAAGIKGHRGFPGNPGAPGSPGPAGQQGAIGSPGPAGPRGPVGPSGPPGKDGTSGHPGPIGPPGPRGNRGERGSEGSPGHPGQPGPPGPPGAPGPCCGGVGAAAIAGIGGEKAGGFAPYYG

T1 sequence (P11087 152-1207 limits assumed): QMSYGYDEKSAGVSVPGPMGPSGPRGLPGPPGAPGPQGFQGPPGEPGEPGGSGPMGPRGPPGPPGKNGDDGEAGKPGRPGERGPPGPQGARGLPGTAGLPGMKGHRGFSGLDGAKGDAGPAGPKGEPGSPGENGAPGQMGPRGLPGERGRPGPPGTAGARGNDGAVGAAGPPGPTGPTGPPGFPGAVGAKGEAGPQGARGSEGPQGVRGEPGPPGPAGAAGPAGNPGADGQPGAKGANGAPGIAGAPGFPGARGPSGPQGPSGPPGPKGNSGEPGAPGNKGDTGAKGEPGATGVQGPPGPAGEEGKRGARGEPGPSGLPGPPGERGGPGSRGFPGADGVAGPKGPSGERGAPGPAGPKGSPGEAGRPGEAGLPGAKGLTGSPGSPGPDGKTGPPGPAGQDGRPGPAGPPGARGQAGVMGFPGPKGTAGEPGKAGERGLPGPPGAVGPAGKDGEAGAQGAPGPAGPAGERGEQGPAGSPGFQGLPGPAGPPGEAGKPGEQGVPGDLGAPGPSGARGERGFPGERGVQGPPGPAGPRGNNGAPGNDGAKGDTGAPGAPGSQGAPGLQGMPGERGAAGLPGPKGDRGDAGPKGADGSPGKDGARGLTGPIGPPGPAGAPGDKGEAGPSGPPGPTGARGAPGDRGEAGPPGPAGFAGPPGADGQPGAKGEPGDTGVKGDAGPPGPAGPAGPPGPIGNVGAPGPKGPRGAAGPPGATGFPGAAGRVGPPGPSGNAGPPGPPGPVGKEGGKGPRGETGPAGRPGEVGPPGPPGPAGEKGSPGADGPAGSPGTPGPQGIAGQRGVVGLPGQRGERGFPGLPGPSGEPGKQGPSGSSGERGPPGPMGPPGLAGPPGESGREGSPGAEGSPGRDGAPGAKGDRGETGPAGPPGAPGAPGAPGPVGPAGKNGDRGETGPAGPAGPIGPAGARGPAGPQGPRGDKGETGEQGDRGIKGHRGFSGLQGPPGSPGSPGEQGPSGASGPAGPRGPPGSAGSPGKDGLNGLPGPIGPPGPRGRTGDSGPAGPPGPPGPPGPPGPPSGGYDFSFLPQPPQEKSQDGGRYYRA
T1 sequence (Q01149 86-1125 limits assumed): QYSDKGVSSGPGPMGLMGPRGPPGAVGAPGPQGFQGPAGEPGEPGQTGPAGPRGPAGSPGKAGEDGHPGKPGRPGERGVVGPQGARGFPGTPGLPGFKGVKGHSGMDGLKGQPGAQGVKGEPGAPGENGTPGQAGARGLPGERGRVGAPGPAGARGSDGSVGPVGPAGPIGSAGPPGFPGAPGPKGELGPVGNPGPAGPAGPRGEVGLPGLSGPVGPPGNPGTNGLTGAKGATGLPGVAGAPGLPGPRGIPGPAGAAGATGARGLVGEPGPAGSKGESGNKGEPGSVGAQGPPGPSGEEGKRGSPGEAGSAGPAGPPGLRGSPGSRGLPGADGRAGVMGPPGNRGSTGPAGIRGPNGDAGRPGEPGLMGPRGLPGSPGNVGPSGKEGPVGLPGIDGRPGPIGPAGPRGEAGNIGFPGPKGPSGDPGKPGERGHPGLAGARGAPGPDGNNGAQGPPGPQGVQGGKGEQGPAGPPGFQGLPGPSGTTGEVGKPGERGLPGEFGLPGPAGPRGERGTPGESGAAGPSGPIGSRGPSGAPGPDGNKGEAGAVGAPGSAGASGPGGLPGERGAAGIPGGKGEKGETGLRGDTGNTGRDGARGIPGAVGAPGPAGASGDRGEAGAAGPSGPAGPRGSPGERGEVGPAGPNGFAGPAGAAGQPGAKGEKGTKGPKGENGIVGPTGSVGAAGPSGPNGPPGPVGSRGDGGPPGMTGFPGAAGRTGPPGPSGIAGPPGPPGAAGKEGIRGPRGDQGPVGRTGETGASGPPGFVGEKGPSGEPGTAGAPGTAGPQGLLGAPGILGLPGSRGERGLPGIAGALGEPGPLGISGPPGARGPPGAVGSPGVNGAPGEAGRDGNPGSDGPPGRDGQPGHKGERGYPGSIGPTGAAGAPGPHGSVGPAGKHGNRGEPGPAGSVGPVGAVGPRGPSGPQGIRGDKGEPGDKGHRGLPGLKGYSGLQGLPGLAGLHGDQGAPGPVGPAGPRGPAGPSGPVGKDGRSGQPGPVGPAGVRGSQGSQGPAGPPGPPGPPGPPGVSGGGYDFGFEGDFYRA

DARKSEVQK [rhodamine-labelled CBP1 analogue probe, CBP1 in fluorescently labelled form, Rhodamine B derivative conjugated to its N-terminus]
co-localisation to COL1 fibres (in words) (COL1 fibres): no co-localisation | co-localisation with COL3-rich fibres within the remodelled aortic wall (in words) (COL3-rich fibres): co-localisation of the fluorescent probe with COL3-rich fibres

O=C([O-])CN1CCN(CC(=O)[O-])CCN([C@H](CO)[C@H](O)CO)CCN(CC(=O)[O-])CC1.[Gd+3] (racemic) [Gadovist]
r1 in PBS ([1]; column PBS): 3.7 mM⁻¹ s⁻¹ | r1 (column HSA 0.6 mM) ([1]; in non-sterile bovine plasma (albumin 0.64 to 0.82 mmol/L)): 6.1* mM^−1 s^−1 | signal enhancement in the infarct, both timepoints after MI (in words) (COL3): No enhancement

Ac-C((Gd-DOTAMA)4 tri‑lysine scaffold)DARKSEVQK (not fully specified) [[Gd-DOTAMA]4-CBP1]
IC50 (Collagen type III (COL3)): 200 µM
